Data as given in patent US11076594B2, “Pyrazolone compound or salt thereof, preparation method therefor, herbicide composition and use thereof” (QINGDAO KINGAGROOT CHEMICAL COMPOUNDS CO., LTD., priority 2015, dated 2021).

Tests used:
Format in all cases: in vivo
Set-up in all cases: key: Level 10: completely dead; Level 9: above 95% growth control rate; Level 8: above 90% growth control rate; Level 7: above 80% growth control rate; Level 6: above 70% growth control rate; Level 5: above 60% growth control rate; Level 4: above 50% growth control rate; Level 3: above 20% growth control rate; Level 2: 5%-20% growth control rate; Level 1: below 5% growth control rate
chickweed = experiment: wheat field resistant broadleaf weed control, greenhouse spray at 4 leaf stage; settings: 250 g/ha of the active substance; 4 weeks after treatment; ALS inhibitor resistant
Procedure, shortened: (§1)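 Seeds sown in soil-filled pots, covered 0.5-2 cm, greenhouse-grown; sprayed at 4 leaf stage (2-3 wk); acetone/methyl oleate emulsion/water formulation; 4 wk greenhouse; fresh wt control rate.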

flixweed = experiment: as above; settings: 250 g/ha of the active substance; 4 weeks after treatment; ALS inhibitor resistant
Procedure, shortened: as §1

corn gromwell = experiment: as above; settings: 250 g/ha of the active substance; 4 weeks after treatment; ALS inhibitor resistant
Procedure, shortened: as §1

shepherd's purse = experiment: as above; settings: 250 g/ha of the active substance; 4 weeks after treatment; ALS inhibitor resistant
Procedure, shortened: as §1

bidens tripartite = experiment: weed control effect evaluation in rice field; settings: 125 g/ha ai; rice field pot; 14 days after treatment; resistant to pyrazosulfuron-ethyl
Source text: (§2) The activity level standard of harmful plant destruction (i.e. growth control rate) is as follows: Rice field soil was loaded into a 1/1,000,000 ha pot. The seeds of echinochloa, scirpus juncoides, bidens tripartite and sagittaria trifolia were sowed and gently covered with soil, then left to stand still in greenhouse in the state of 0.5-1 cm of water storage. The tuber of sagittaria trifolia was planted in the next day or 2 days later. It was kept at 3-4 cm of water storage thereafter. The weeds were treated by dripping the WP or SC water diluents prepared according to the common preparation method of the compounds of the present invention with pipette homogeneously to achieve specified effective amount when echinochloa, scirpus juncoides and bidens tripartite reached 0.5 leaf stage and sagittaria trifolia reached the time point of primary leaf stage. The fertility condition of echinochloa, scirpus juncoides, bidens tripartite and sagittaria trifolia 14 days after the treatment of the compound of the invention and the fertility condition of rice 21 days after the treatment of the compound of the invention respectively with the naked eye.

scirpus juncoides = experiment: weed control effect evaluation in rice field; settings: 125 g/ha ai; rice field pot; 14 days after treatment; resistant to pyrazosulfuron-ethyl
Source text: as §2

echinochloa = experiment: weed control effect evaluation in rice field; settings: 125 g/ha ai; rice field pot; 14 days after treatment; resistant to pyrazosulfuron-ethyl
Source text: as §2

sagittaria trifolia = experiment: weed control effect evaluation in rice field; settings: 125 g/ha ai; rice field pot; 14 days after treatment; resistant to pyrazosulfuron-ethyl
Source text: as §2

alopecurus japonicas = experiment: wheat field resistant weed control, greenhouse spray at 4 leaf stage; settings: sprayed at 4 leaf stage, 4 weeks after treatment, resistant to ALS and ACCase inhibitor herbicides
Procedure, shortened: as §1

**Q.** Which “chickweed weed controlling effect (activity level)” value (“chickweed weed controlling effect” for short) (chickweed) does the source give for `CCn1nc(C)c(C(=O)c2ccc(C(F)(F)F)c(-n3cccn3)c2Cl)c1OC(=O)c1cn(C)nc1C` [Compound 129] here?
**A.** 10

**Q.** What about the “flixweed weed controlling effect (activity level)” value (“flixweed weed controlling effect” below) (flixweed) of the same molecule?
**A.** 10

**Q.** And the “corn gromwell weed controlling effect (activity level)” value (from here on “corn gromwell weed controlling effect”) (corn gromwell)?
**A.** 10

**Q.** And the “shepherd's purse weed controlling effect (activity level)” value (shepherd's purse)?
**A.** 10

**Q.** What about the “Bidens tripartite weed control effect (activity level)” value (“Bidens tripartite weed control effect” below) (bidens tripartite) of the same molecule?
**A.** 10

**Q.** And the “Scirpus juncoides weed control effect (activity level)” value (shortened to “Scirpus juncoides weed control effect”) (scirpus juncoides)?
**A.** 10

**Q.** And the “Echinochloa weed control effect (activity level)” value (“Echinochloa weed control effect” for short) (echinochloa)?
**A.** 10

**Q.** And the “Sagittaria trifolia weed control effect (activity level)” value (from here on “Sagittaria trifolia weed control effect”) (sagittaria trifolia)?
**A.** 10

**Q.** For `CCOc1c(C(=O)Oc2c(C(=O)c3ccc(C(F)(F)F)c(N4CCCCC4=O)c3Cl)c(C)nn2C)cnn1C` [Compound 037], which “chickweed weed controlling effect” value (chickweed) is on record?
**A.** 10

**Q.** What about the “flixweed weed controlling effect” value (flixweed) of the same molecule?
**A.** 10

**Q.** And the “corn gromwell weed controlling effect” value (corn gromwell)?
**A.** 10

**Q.** What about the “shepherd's purse weed controlling effect (activity level)” value (shepherd's purse) of the same molecule?
**A.** 10

**Q.** What about the “Bidens tripartite weed control effect” value (bidens tripartite) of the same molecule?
**A.** 10

**Q.** What about the “Scirpus juncoides weed control effect” value (scirpus juncoides) of the same molecule?
**A.** 10

**Q.** What about the “Echinochloa weed control effect” value (echinochloa) of the same molecule?
**A.** 10

**Q.** And the “Sagittaria trifolia weed control effect” value (sagittaria trifolia)?
**A.** 10

**Q.** Which “chickweed weed controlling effect” value (chickweed) does the source give for `CCOc1c(C(=O)Oc2c(C(=O)c3ccc(C(F)(F)F)c(-n4cccn4)c3Cl)c(C)nn2C)cnn1C` [Compound 071] here?
**A.** 10

**Q.** And the “flixweed weed controlling effect” value (flixweed)?
**A.** 10

**Q.** What about the “corn gromwell weed controlling effect” value (corn gromwell) of the same molecule?
**A.** 10

**Q.** What about the “shepherd's purse weed controlling effect (activity level)” value (shepherd's purse) of the same molecule?
**A.** 10

**Q.** What about the “Bidens tripartite weed control effect” value (bidens tripartite) of the same molecule?
**A.** 8 (Level 8: above 90% growth control rate)

**Q.** What about the “Scirpus juncoides weed control effect” value (scirpus juncoides) of the same molecule?
**A.** 10

**Q.** And the “Echinochloa weed control effect” value (echinochloa)?
**A.** 10

**Q.** And the “Sagittaria trifolia weed control effect” value (sagittaria trifolia)?
**A.** 10

**Q.** What does the source list for `Cc1nn(C)c(O)c1C(=O)c1ccc(C(F)(F)F)c(N2CCCCC2=O)c1Cl` [Compound 035]?
**A.** Bidens tripartite weed control effect (activity level) (bidens tripartite): 9 (Level 9: above 95% growth control rate); Scirpus juncoides weed control effect (activity level) (scirpus juncoides): 10; Echinochloa weed control effect (activity level) (echinochloa): 8 (Level 8: above 90% growth control rate); Sagittaria trifolia weed control effect (activity level) (sagittaria trifolia): 9 (Level 9: above 95% growth control rate); Alopecurus japonicas weed controlling effect (activity level) (alopecurus japonicas; 1 g/mu): 0; Alopecurus japonicas weed controlling effect (activity level) (alopecurus japonicas; 2 g/mu): 2 (Level 2: 5%-20% growth control rate); Alopecurus japonicas weed controlling effect (activity level) (alopecurus japonicas; 4 g/mu): 6 (Level 6: above 70% growth control rate); Alopecurus japonicas weed controlling effect (activity level) (alopecurus japonicas; 8 g/mu): 6 (Level 6: above 70% growth control rate)

**Q.** What does the source list for `Cc1nn(C)cc1C(=O)Oc1c(C(=O)c2ccc(C(F)(F)F)c(N3CCCC3=O)c2Cl)c(C)nn1C` [Compound 023]?
**A.** Bidens tripartite weed control effect (activity level) (bidens tripartite): 10; Scirpus juncoides weed control effect (activity level) (scirpus juncoides): 10; Echinochloa weed control effect (activity level) (echinochloa): 10; Sagittaria trifolia weed control effect (activity level) (sagittaria trifolia): 10; Alopecurus japonicas weed controlling effect (activity level) (alopecurus japonicas; 1 g/mu): 1 (Level 1: below 5% growth control rate); Alopecurus japonicas weed controlling effect (activity level) (alopecurus japonicas; 2 g/mu): 6 (Level 6: above 70% growth control rate); Alopecurus japonicas weed controlling effect (activity level) (alopecurus japonicas; 4 g/mu): 8 (Level 8: above 90% growth control rate); Alopecurus japonicas weed controlling effect (activity level) (alopecurus japonicas; 8 g/mu): 10

**Q.** `CCOc1c(C(=O)Oc2c(C(=O)c3ccc(C(F)(F)F)c(-n4cc(C)cn4)c3Cl)cnn2C)cnn1C` [Compound 081] was tested. Which “chickweed weed controlling effect” value (chickweed) did it give?
**A.** 10

**Q.** What about the “flixweed weed controlling effect” value (flixweed) of the same molecule?
**A.** 10

**Q.** What about the “corn gromwell weed controlling effect” value (corn gromwell) of the same molecule?
**A.** 10

**Q.** And the “shepherd's purse weed controlling effect (activity level)” value (shepherd's purse)?
**A.** 10

**Q.** And the “Bidens tripartite weed control effect” value (bidens tripartite)?
**A.** 10

**Q.** And the “Scirpus juncoides weed control effect” value (scirpus juncoides)?
**A.** 10

**Q.** What about the “Echinochloa weed control effect” value (echinochloa) of the same molecule?
**A.** 10

**Q.** And the “Sagittaria trifolia weed control effect” value (sagittaria trifolia)?
**A.** 10

**Q.** `CCOc1c(C(=O)Oc2c(C(=O)c3ccc(C(F)(F)F)c(-n4cc(C)cn4)c3Cl)c(C3CC3)nn2C)cnn1C` [Compound 092] was tested. Which “chickweed weed controlling effect” value (chickweed) did it give?
**A.** 10

**Q.** What about the “flixweed weed controlling effect” value (flixweed) of the same molecule?
**A.** 10

**Q.** What about the “corn gromwell weed controlling effect” value (corn gromwell) of the same molecule?
**A.** 10

**Q.** And the “shepherd's purse weed controlling effect (activity level)” value (shepherd's purse)?
**A.** 10

**Q.** And the “Bidens tripartite weed control effect” value (bidens tripartite)?
**A.** 9 (Level 9: above 95% growth control rate)

**Q.** What about the “Scirpus juncoides weed control effect” value (scirpus juncoides) of the same molecule?
**A.** 10

**Q.** And the “Echinochloa weed control effect” value (echinochloa)?
**A.** 10

**Q.** What about the “Sagittaria trifolia weed control effect” value (sagittaria trifolia) of the same molecule?
**A.** 10
